The supplement of paper PMC7661543
± gives the standard deviation of the averaged measurements.

Key:
Experiment in all cases: relative cell number vs DMSO control (72 h) (% of DMSO); higher = less growth inhibition (more cells)
Details in all cases: sgRNA knockout: sgNT
SKBR3 = system: SKBR3
Procedure, shortened: (§1)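 After 6 days of induction with 100 ng/mL doxycycline, pooled Cas9-engineered breast cancer lines were plated at 5000 cells per 96-well and dosed in duplicate for 72 h at four 10-fold concentrations (10 nM–10 μM or 1 nM–1 μM). Cell numbers came from sequenced sgRNA and cell-line barcode reads, interpolated against 293T spike-in standard curves made for each sample. Relative cell number is reported against the median of DMSO-treated samples as a percent.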

ZR-75-1 = system: ZR-75-1
Procedure, shortened: as §1

MDA-MB-231 = system: MDA-MB-231
Procedure, shortened: as §1

HCC-38 = system: HCC-38
Procedure, shortened: as §1

BT-20 = system: BT-20
Procedure, shortened: as §1

Row | SMILES | relative cell number (SKBR3; 1 nM) | relative cell number (SKBR3; 10 nM) | relative cell number (SKBR3; 100 nM) | relative cell number (SKBR3; 1000 nM) | relative cell number (ZR-75-1; 1 nM) | relative cell number (ZR-75-1; 10 nM) | relative cell number (ZR-75-1; 100 nM) | relative cell number (ZR-75-1; 1000 nM) | relative cell number (MDA-MB-231; 1 nM) | relative cell number (MDA-MB-231; 10 nM) | relative cell number (MDA-MB-231; 100 nM) | relative cell number (MDA-MB-231; 1000 nM) | relative cell number (HCC-38; 1 nM) | relative cell number (HCC-38; 10 nM) | relative cell number (HCC-38; 100 nM) | relative cell number (HCC-38; 1000 nM) | relative cell number (BT-20; 1 nM) | relative cell number (BT-20; 10 nM) | relative cell number (BT-20; 100 nM) | relative cell number (BT-20; 1000 nM) | relative cell number (SKBR3; 10000 nM) | relative cell number (ZR-75-1; 10000 nM) | relative cell number (MDA-MB-231; 10000 nM) | relative cell number (HCC-38; 10000 nM) | relative cell number (BT-20; 10000 nM)
1 | COCC[n+]1c2c(n(Cc3cnccn3)c1C)C(=O)c1ccccc1C2=O [YM155] | 79.4 ± 20 | 62.2 ± 7.2 | 6.9 ± 0.62 | 4.71 ± 4.5 | 87.2 ± 46 | 23.9 ± 13 | 6.08 ± 4.9 | 3.11 ± 2.6 | 75.1 ± 3.9 | 27.1 ± 0.85 | 6.58 ± 1.3 | 4.86 ± 1.3 | 54.7 ± 3.2 | 20.2 ± 2 | 4.12 ± 0.77 | 5.13 ± 0.38 | 88.6 ± 16 | 41.8 ± 5 | 4.66 ± 1.7 | 5.07 ± 2.5 | – | – | – | – | –
2 | FC(F)c1nc2ccccc2n1-c1nc(N2CCOCC2)nc(N2CCOCC2)n1 [ZSTK474] | – | 93.1 ± 1.6 | 85 ± 15 | 60.2 ± 41 | – | 85.1 ± 10 | 96.2 ± 4.4 | 53.6 ± 27 | – | 92.9 ± 15 | 89.6 ± 34 | 81.7 ± 4.7 | – | 90.3 ± 4.3 | 94.3 ± 9.2 | 83.4 ± 7.9 | – | 79.2 ± 5 | 99.2 ± 19 | 70.9 ± 21 | 39.1 ± 6.5 | 50 ± 12 | 76.3 ± 15 | 56.2 ± 1.8 | 55.4 ± 3
3 | O=c1ncccn1[C@@H]1O[C@H](CO)[C@@H](O)[C@H]1O [Zebularine] | – | 98.7 ± 28 | 83.6 ± 30 | 83.8 ± 14 | – | 84.7 ± 48 | 66 ± 3.3 | 108 ± 26 | – | 108 ± 38 | 121 ± 22 | 93.6 ± 0.27 | – | 112 ± 28 | 107 ± 6.2 | 107 ± 1.8 | – | 96.6 ± 7.1 | 83.6 ± 14 | 88.3 ± 38 | 106 ± 9.4 | 117 ± 5.5 | 72.7 ± 13 | 115 ± 7.4 | 119 ± 24
